# From US20080288176A1 (priority 2005, published 2008)
# Columns and labels:
# [1] = Plasma NAPROXEN AUC0-6h after oral dosing; assay type: in vivo, rat; details: male Wistar rats
# Experimental: (§1) Table 1 is a summary of the protocol for a study which was conducted in male Wistar rats weighing 275-300 grams. The animals were allowed to acclimatize for at least five days prior to the commencement of the study. The study protocol was approved by the local animal ethics committee.
# [2] = Hydrolysis in human liver microsomes; assay type: in vitro ADME; details: for liver microsomal activity: model input
# Excerpt: The time course of the prodrug, its active metabolites and nitric oxide release can be simulated using a series of in vitro and in silico inputs. The stability of each component in the gastrointestinal lumen is estimated using data collected from artificial gastric and intestinal juice. Intestinal metabolism is estimated using intestinal microsomes and absorption rate is estimated using permeability data collected from a cell monolayer such as Caco-2. Hepatic elimination is estimated using liver microsomes and stability in plasma is calculated using degradation of each component in the media. Plasma protein binding can either be measured using a standardized in vitro method or it can be estimated using an in silico method. The distribution of each component in various parts of the body is estimated using an in silico method. The rate of nitric oxide release is estimated using an in vitro endothelial cell model. The time course of prodrug, its active metabolites and nitric oxide can be simulated in human and animal using this physiologically based pharmacokinetic/pharmacodynamic model provided that the corresponding in vitro and in silico data are used as inputs.
# The selection of in vitro tests is designed to provide parameters for the above mentioned model. The use of an inappropriate test would result in wrong predictions.
# (§2) Representative in vitro tests or in silico estimates include: (a) pKa estimation or measurement; (b) Log P measurement or in silico estimation; (c) Solubility in various physiological fluids; (d) Permeability. Caco-2 and/or NOVOKIN's proprietary animal and human cell lines can be used to obtain this parameter; (e) Metabolic rate in the intestine and liver. Human or animal intestinal microsomes, S9 fraction, and cytosol can be used for this purpose. Human or animal hepatocytes, liver microsomes, S9 fraction, and cytosol can also be used; (f) Hydrolysis in human or animal plasma; (g) Serum or plasma protein binding. It can be measured in vitro or estimated in silico; (h) The rate of NO release; (i) Existing pharmacokinetic and pharmacodynamic data of NSAID or a biocompatible agent; (j) Existing NO release rate of known diazeniumdiolate if applicable; (k) Stability in gastric and intestinal environment; and (l) In silico volume of distribution estimation.
# The simulation begins with no material in all compartments except for the initial bolus in one compartment (typically the stomach compartment). The simulation then estimates the changing distribution of the material with time.
# [3] = Hydrolysis in human intestinal microsomes; assay type: in vitro ADME; details: for intestinal microsomal activity: model input
# Excerpt: (§3) The physiologically based pharmacokinetic/pharmacodynamic model of the present invention contains a series of compartments that describe the time course of a nonsteroidal anti-inflammatory prodrug, its active metabolites and nitric oxide release in intestine, liver, kidneys, blood/plasma and heart after prodrug administration. The time course of the prodrug, its active metabolites and nitric oxide release can be simulated using a series of in vitro and in silico inputs. The stability of each component in the gastrointestinal lumen is estimated using data collected from artificial gastric and intestinal juice. Intestinal metabolism is estimated using intestinal microsomes and absorption rate is estimated using permeability data collected from a cell monolayer such as Caco-2. Hepatic elimination is estimated using liver microsomes and stability in plasma is calculated using degradation of each component in the media. Plasma protein binding can either be measured using a standardized in vitro method or it can be estimated using an in silico method. The distribution of each component in various parts of the body is estimated using an in silico method. The rate of nitric oxide release is estimated using an in vitro endothelial cell model. The time course of prodrug, its active metabolites and nitric oxide can be simulated in human and animal using this physiologically based pharmacokinetic/pharmacodynamic model provided that the corresponding in vitro and in silico data are used as inputs.
# The selection of in vitro tests is designed to provide parameters for the above mentioned model. The use of an inappropriate test would result in wrong predictions. For example, Knaus et al. (2005) used guinea pig serum and porcine esterases to hydrolyze their O^2-substituted diazeniumdiolate derivatives of ASPIRIN, as disclosed in U.S. Ser. No. 60/681,842. These tests provided very little information in terms of in vivo human NO-NSAID metabolism rate and the extent to which metabolic conversion to NO donor and NSAID occurred. […] The half-life values were less than one minute. Based on these observations, it has become apparent that prior to entering the systemic circulation, it is likely that the NO-NSAID would have been hydrolyzed in the enterocytes and little or no NO-NSAID would have been detected in the blood stream. Furthermore, the release of NO will commence immediately once the NO donor is detached from the NSAID.
# as §2
# Whenever in vitro estimate is attainable, the in vitro results will be used, for example, plasma protein binding. Methods reported by Bowalgaha & Miners (2001), Martignoni et al. (2006), Tong et al. (2001) and Thulesen et al. (1999) were used for in vitro and in vivo scale-up for clearance in the intestine, absorption rate constant and hepatic clearance. The simulation begins with no material in all compartments except for the initial bolus in one compartment (typically the stomach compartment). The simulation then estimates the changing distribution of the material with time.
# [4] = Hydrolysis in human plasma; assay type: in vitro ADME
# Excerpt: as §3, with “The time course of prodrug, its active metabolites and nitric oxide can be simulated in human and animal using this physiologically based pharmacokinetic/pharmacodynamic model provided that the corresponding in vitro and in silico data are used as inputs.” left out
# [5] = test system: cardiac tissue prostacyclin (PGI2) to thromboxane A2 (TXB2) ratio; experiment: Cardiac tissue prostacyclin to thromboxane ratio; assay type: in vivo, rat; details: male Wistar rats; for Cardiac Tissue PGI2/TXB2, Mean: oral gavage, heart removed 6 hours after dosing
# Excerpt: Myocardial infarction and ischemic events in high risk patients led one of the most popular COX-2 inhibitors to its demise (Bresalier et al., 2005). Non-selective NSAIDS may also cause similar problems due to their ability to inhibit COX-2. […] Adenosine diphosphate (ADP) generation is an indicator of myocardial infarction which has no connection with the arachidonic acid cascade (Borna et al., 2005). […] Long term NSAID use has been linked to kidney damage and hypertension (Zafirovska et al., 1993). […] This was associated with an increase in the urine the ratio of alanine-amino-peptidase (AAP) and creatinine.
# as §1
# All rats were euthanized by removal of the heart 6 hours after initial dosing, following final blood collections. Immediately after terminal blood collections were complete, the thorax was opened and the heart removed. The heart was cut in half longitudinally. Half of the heart was placed in formalin for histological examination. The other half was quickly rinsed in saline and then freeze-clamped (crushed between the jaws of a pair of modified tongs, cooled by liquid nitrogen). An entire kidney was freeze-clamped. The other kidney was left in situ for examination by the pathologist. Freeze-clamped tissues were wrapped in labeled aluminum foil and stored in liquid nitrogen until they could be transferred to a −80° C. freezer. Freeze-clamped tissues were shipped on dry ice to NOVOKIN for analysis.
# [6] = in vitro; Knaus et al., 2005; cited from earlier work
structure (smiles),measurement,setting,value
COc1ccc2cc([C@H](C)C(=O)OCCCCO[N+](=O)[O-])ccc2c1 [AZD 3582],AUC0-6h of NAPROXEN compared with parent drug (in words),[1],much lower than for NAPROXEN parent drug
same,liver microsomal activity,[2],118566 mL/min/organ
same,intestinal microsomal activity,[3],554 mL/min/organ
same,plasma decay rate constant,[4],1.0 min⁻¹
same,PGI2/TXA2 ratio comparison (in words),[5]; cardiac tissue,lower ratios than vehicle
same,"Cardiac Tissue PGI2/TXB2, Mean",[5],3.432
"COc1ccc2cc(C(C)C(=O)OCON=[N+]([O-])N3CCCC3)ccc2c1 (stereo not drawn) [PYRO-NO-NAP, pyrrolidino-diazeniumdiolate-naproxen]",NO generating capacity relative to AZD 3582,[6],13 times
same,liver molar percent conversion to Naproxen,[2],72%
same,liver microsomal activity,[2],567000 mL/min/organ
same,intestinal molar percent conversion to Naproxen,[3],87%
same,intestinal microsomal activity,[3],188 mL/min/organ
same,"Cardiac Tissue PGI2/TXB2, Mean",[5],4.937
